Measurements as given in patent publication US8952024B2, “Herbicidal pyrimidone derivatives” (E I du Pont de Nemours and Company, priority 2009, dated 2015).

Key:
Assay type in all cases: in vivo
[1] = test system: pigweed (Amaranthus retroflexus); assay: Test A pre-/postemergence plant response
Text: (§1) Seeds of barnyardgrass (Echinochloa crus-galli), large crabgrass (Digitaria sanguinalis), giant foxtail (Setaria faberii), morningglory (Ipomoea spp.), pigweed (Amaranthus retroflexus), velvetleaf (Abutilon theophrasti), wheat (Triticum aestivum) and corn (Zea mays) were planted into a blend of loam soil and sand and treated preemergence with a directed soil spray using test chemicals formulated in a non-phytotoxic solvent mixture which included a surfactant. At the same time these species were also treated with postemergence applications of test compounds formulated in the same manner.
(§2) Plants ranged in height from two to ten cm and were in the one- to two-leaf stage for the postemergence treatment. Treated plants and untreated controls were maintained in a greenhouse for approximately ten days, after which time all treated plants were compared to untreated controls and visually evaluated for injury. Plant response ratings, summarized in Table A, are based on a 0 to 100 scale where 0 is no effect and 100 is complete control. A dash (-) response means no test result.

[2] = test system: large crabgrass (Digitaria sanguinalis); assay: Test A pre-/postemergence plant response
Text: as §1, §2

[3] = test system: wheat (Triticum aestivum); assay: Test A pre-/postemergence plant response
Text: as §1, §2

[4] = test system: morningglory (Ipomoea spp.); assay: Test A pre-/postemergence plant response
Text: as §1, §2

[5] = test system: velvetleaf (Abutilon theophrasti); assay: Test A pre-/postemergence plant response
Text: as §1, §2

[6] = test system: barnyardgrass (Echinochloa crus-galli); assay: Test A pre-/postemergence plant response
Text: as §1, §2

[7] = test system: giant foxtail (Setaria faberii); assay: Test A pre-/postemergence plant response
Text: as §1, §2

corn (Zea mays) = assay: Test A pre-/postemergence plant response
Text: as §1, §2

rice (Oryza sativa) = assay: Test B flooded paddy test; settings: for Plant response rating, Flood, Rice: 250 g ai/ha, flooded paddy test, visual rating on 0 to 100 scale (0 no effect, 100 complete control) after 13 to 15 days; for Plant response rating, Rice: Flood (flooded paddy test), 13 to 15 days; for Rice plant response rating: Flood, scale 0 to 100 (0 no effect, 100 complete control)
Procedure, shortened: (§3)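 Flooded-pot test: water raised to 3 cm above soil when treating, compound put in the water, level unchanged thereafter. Plants were at 2 leaves. Readout after 13 to 15 days, visual, relative to controls; 0 signifies no effect and 100 complete control.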

[8] = test system: barnyardgrass (Echinochloa crus-galli); assay: Test B flooded paddy test; settings: for Plant response rating, Flood, Barnyardgrass: 250 g ai/ha, flooded paddy test, visual rating on 0 to 100 scale (0 no effect, 100 complete control) after 13 to 15 days; for Plant response rating, Barnyardgrass: Flood (flooded paddy test), 13 to 15 days; for Barnyardgrass plant response rating: Flood, scale 0 to 100 (0 no effect, 100 complete control)
Procedure, shortened: as §3

[9] = test system: umbrella sedge (Cyperus difformis); assay: Test B flooded paddy test; settings: for Plant response rating, Flood, Sedge, Umbrella: 250 g ai/ha, flooded paddy test, visual rating on 0 to 100 scale (0 no effect, 100 complete control) after 13 to 15 days; for Plant response rating, Sedge, Umbrella: Flood (flooded paddy test), 13 to 15 days; for Sedge, Umbrella plant response rating: Flood, scale 0 to 100 (0 no effect, 100 complete control)
Procedure, shortened: as §3

[10] = test system: ducksalad (Heteranthera limosa); assay: Test B flooded paddy test; settings: for Plant response rating, Flood, Ducksalad: 250 g ai/ha, flooded paddy test, visual rating on 0 to 100 scale (0 no effect, 100 complete control) after 13 to 15 days; for Plant response rating, Ducksalad: Flood (flooded paddy test), 13 to 15 days; for Ducksalad plant response rating: Flood, scale 0 to 100 (0 no effect, 100 complete control)
Procedure, shortened: as §3

[11] = Postemergence, 125 g ai/ha, visual injury, 0 to 100 scale (0 no effect, 100 complete control), approx. ten days
[12] = Postemergence, 500 g ai/ha, visual injury, 0 to 100 scale (0 no effect, 100 complete control), approx. ten days
[13] = Preemergence, 125 g ai/ha, 0 to 100 scale where 0 is no effect and 100 is complete control, approximately ten days
[14] = Preemergence, 500 g ai/ha, 0 to 100 scale, 0 = no effect, 100 = complete control
[15] = Postemergence, 125 g ai/ha, 0 to 100 scale where 0 is no effect and 100 is complete control
[16] = 62 g ai/ha, scale of 0 to 100 where 0 is no effect and 100 is complete control
[17] = 125 g ai/ha, scale 0 to 100, 0 is no effect, 100 is complete control
[18] = Postemergence, 500 g ai/ha, 0 to 100 scale, 0 = no effect, 100 = complete control, approx. ten days
[19] = Preemergence, 125 g ai/ha, 0 to 100 scale, 0 = no effect, 100 = complete control
[20] = Preemergence, 500 g ai/ha, visual injury, 0 to 100 scale (0 no effect, 100 complete control), approx. ten days
[21] = 31 g ai/ha, scale of 0 to 100 where 0 is no effect and 100 is complete control
[22] = 62 g ai/ha, scale 0 to 100, 0 is no effect, 100 is complete control

O=C(C1=C(O)C2CCC(C2)C1=O)c1cnc(-c2ccccc2)n(C2CCCCCC2)c1=O (centres unmarked) [Compound 253]
0: Plant response rating, Wheat [3, 11] | Plant response rating, Wheat [3, 13] | Plant response rating, Corn (corn (Zea mays); [13]) | Plant response rating, Rice (rice (Oryza sativa); [16]) | Plant response rating, Rice (rice (Oryza sativa); [17]) | Rice plant response rating (rice (Oryza sativa); 31 g ai/ha) | Plant response rating, Barnyardgrass [8, 16] | Plant response rating, Barnyardgrass [8, 17] | Barnyardgrass plant response rating ([8]; 31 g ai/ha)
60: Plant response rating, Foxtail, Giant [7, 11] | Sedge, Umbrella plant response rating ([9]; 31 g ai/ha) | Ducksalad plant response rating ([10]; 31 g ai/ha)
30: Plant response rating, Crabgrass, Large [2, 13]
100: Pigweed plant response rating [1, 12] | Crabgrass, Large plant response rating [2, 12] | Plant response rating, Morningglory [4, 11] | Morningglory plant response rating [4, 12] | Plant response rating, Velvetleaf [5, 11] | Velvetleaf plant response rating [5, 12] | Plant response rating, Barnyardgrass [6, 15] | Barnyardgrass plant response rating [6, 12] | Foxtail, Giant plant response rating [7, 12]
40: Plant response rating, Morningglory [4, 13] | Corn plant response rating (corn (Zea mays); [12])
75: Plant response rating, Sedge, Umbrella [9, 17] | Plant response rating, Ducksalad [10, 16]
85: Plant response rating, Flood, Sedge, Umbrella [9] | Plant response rating, Ducksalad [10, 17]
65: Plant response rating, Sedge, Umbrella [9, 16]
70: Plant response rating, Morningglory [4, 14] | Plant response rating, Foxtail, Giant [7, 14]
10: Plant response rating, Barnyardgrass [6, 13] | Plant response rating, Corn (corn (Zea mays); [15])
90: Plant response rating, Pigweed [1, 11] | Plant response rating, Velvetleaf [5, 14] | Plant response rating, Flood, Ducksalad [10]
20: Plant response rating, Pigweed [1, 13] | Wheat plant response rating [3, 12] | Plant response rating, Wheat [3, 14] | Plant response rating, Barnyardgrass [6, 14] | Plant response rating, Foxtail, Giant [7, 13] | Plant response rating, Flood, Rice (rice (Oryza sativa)) | Plant response rating, Flood, Barnyardgrass [8]
80: Plant response rating, Pigweed [1, 14] | Plant response rating, Crabgrass, Large [2, 15] | Plant response rating, Crabgrass, Large [2, 14]
50: Plant response rating, Velvetleaf [5, 13]

O=C1CCCC(O)=C1C(=O)c1cnc(-c2ccccc2Cl)n(-c2ccccc2)c1=O [Compound 35]
60: Plant response rating, Crabgrass, Large [2, 20] | Plant response rating, Barnyardgrass [6, 18]
70: Plant response rating, Velvetleaf [5, 20]
40: Foxtail, Giant plant response rating [7, 11]
80: Pigweed plant response rating [1, 11] | Plant response rating, Crabgrass, Large [2, 18] | Plant response rating, Morningglory [4, 18] | Plant response rating, Foxtail, Giant [7, 18]
100: Plant response rating, Pigweed [1, 18] | Plant response rating, Pigweed [1, 20] | Velvetleaf plant response rating [5, 11] | Plant response rating, Velvetleaf [5, 18]
10: Plant response rating, Pigweed [1, 19] | Plant response rating, Crabgrass, Large [2, 19] | Barnyardgrass plant response rating [6, 11] | Plant response rating, Foxtail, Giant [7, 20] | Plant response rating, Corn (corn (Zea mays); [18])
50: Crabgrass, Large plant response rating [2, 11]
20: Plant response rating, Morningglory [4, 20]
0: Wheat plant response rating [3, 11] | Plant response rating, Wheat [3, 18] | Plant response rating, Wheat [3, 19] | Plant response rating, Wheat [3, 20] | Plant response rating, Velvetleaf [5, 19] | Plant response rating, Barnyardgrass [6, 19] | Plant response rating, Barnyardgrass [6, 20] | Plant response rating, Foxtail, Giant [7, 19] | Corn plant response rating (corn (Zea mays); [11]) | Plant response rating, Corn (corn (Zea mays); [19]) | Plant response rating, Corn (corn (Zea mays); [20]) | Plant response rating, Rice (rice (Oryza sativa); [21]) | Plant response rating, Rice (rice (Oryza sativa); [22]) | Plant response rating, Rice (rice (Oryza sativa); [17]) | Plant response rating, Flood, Barnyardgrass [8] | Plant response rating, Barnyardgrass [8, 21] | Plant response rating, Barnyardgrass [8, 22] | Plant response rating, Barnyardgrass [8, 17] | Plant response rating, Flood, Sedge, Umbrella [9] | Plant response rating, Sedge, Umbrella [9, 21] | Plant response rating, Sedge, Umbrella [9, 22] | Plant response rating, Sedge, Umbrella [9, 17] | Plant response rating, Flood, Ducksalad [10] | Plant response rating, Ducksalad [10, 21] | Plant response rating, Ducksalad [10, 22] | Plant response rating, Ducksalad [10, 17]

O=C1CCCC(O)=C1C(=O)c1cnc(-c2cc(F)cc(F)c2)n(-c2ccccc2)c1=O [Compound 161]
50: Plant response rating, Crabgrass, Large [2, 19] | Plant response rating, Foxtail, Giant [7, 19] | Plant response rating, Flood, Rice (rice (Oryza sativa)) | Plant response rating, Rice (rice (Oryza sativa); [16])
90: Plant response rating, Pigweed [1, 19] | Crabgrass, Large plant response rating [2, 12] | Plant response rating, Crabgrass, Large [2, 14] | Plant response rating, Velvetleaf [5, 14] | Barnyardgrass plant response rating [6, 12] | Plant response rating, Barnyardgrass [6, 14] | Foxtail, Giant plant response rating [7, 12]
70: Plant response rating, Velvetleaf [5, 19]
80: Plant response rating, Pigweed [1, 15] | Plant response rating, Foxtail, Giant [7, 14] | Plant response rating, Flood, Ducksalad [10]
0: Plant response rating, Wheat [3, 15] | Wheat plant response rating [3, 12] | Plant response rating, Wheat [3, 19] | Plant response rating, Wheat [3, 14] | Plant response rating, Morningglory [4, 19] | Plant response rating, Corn (corn (Zea mays); [15]) | Plant response rating, Corn (corn (Zea mays); [19]) | Plant response rating, Corn (corn (Zea mays); [14]) | Plant response rating, Barnyardgrass [8, 16] | Plant response rating, Barnyardgrass [8, 17] | Barnyardgrass plant response rating ([8]; 31 g ai/ha) | Plant response rating, Sedge, Umbrella [9, 16] | Plant response rating, Sedge, Umbrella [9, 17] | Sedge, Umbrella plant response rating ([9]; 31 g ai/ha) | Plant response rating, Ducksalad [10, 16] | Plant response rating, Ducksalad [10, 17] | Ducksalad plant response rating ([10]; 31 g ai/ha)
40: Plant response rating, Morningglory [4, 14] | Plant response rating, Foxtail, Giant [7, 15]
100: Pigweed plant response rating [1, 12] | Plant response rating, Pigweed [1, 14] | Morningglory plant response rating [4, 12] | Plant response rating, Velvetleaf [5, 15] | Velvetleaf plant response rating [5, 12]
10: Plant response rating, Barnyardgrass [6, 19] | Corn plant response rating (corn (Zea mays); [12])
45: Plant response rating, Rice (rice (Oryza sativa); [17])
25: Rice plant response rating (rice (Oryza sativa); 31 g ai/ha)
60: Plant response rating, Crabgrass, Large [2, 15] | Plant response rating, Morningglory [4, 15] | Plant response rating, Flood, Sedge, Umbrella [9]
30: Plant response rating, Barnyardgrass [6, 15] | Plant response rating, Flood, Barnyardgrass [8]
